Assay results published in patent US11339124B2, “3-(benzylamino)-4-(cyclohexylamino)-n-(2-(piperazin-1-yl)ethyl)benzenesulfonamide derivatives and related ferrostatin-1 analogues as cell death inhibitors for treating e.g. stroke” (VIB VZW, priority 2018, dated 2022).
Where “and” joins values, the source holds several entries; their conditions need not be identical. Equal values may be shown once. Entries after “also recorded” stand apart in the source; their conditions may differ. Read-outs that look alike come from different tables or passages of the source. Marks after values point to notes of the source that are not given here.

Assays:
[1] = test system: experimental autoimmune encephalomyelitis model; assay: Experimental autoimmune encephalomyelitis (EAE) model, therapeutic intervention; assay type: in vivo; conditions: C57BL/6N male mice, daily ip from clinical score 2, scale 0 to 6 (FIG. 6); Hydrochloride
Procedure: 9-10-week-old C57BL/6N male mice were immunized subcutaneously with an emulsion of (MOG) 35-55 peptide (10 mg/kg) and CFA supplemented with Mycobacterium tuberculosis H37RA (50 mg/kg). The mice received an intraperitoneal injection of pertussis toxin (5 ug/kg) at the time of immunization and 48 h later. In a therapeutic procedure, mice that reached the clinical sore of 2 were injected intraperitoneally every day with equimolar amounts of Fer-1, compound 39, Liproxtatin-1 or vehicle (˜1-mg/kg) and were scored daily. Clinical signs of disease were scored on a scale of 0 to 6, as follows: 0, normal; 1, weakness of tail; 2, complete loss of tail tonicity; 3, partial hind limb paralysis; 4, complete hind limb paralysis; 5, forelimb paralysis or moribund; and 6, death (McGuire C et al (2013) J. Immunol. 190(6): 2896).
Experimental autoimmune encephalomyelitis (EAE) is an experimental mouse for multiple sclerosis.

[2] = Tissue distribution in rats 24 h after iv dose; assay type: in vivo; conditions: rat, 5 mg/kg iv; for concentration at 24 h: male, Wistar, iv
Procedure: To assess the extent of tissue distribution of compound 39, various organs (liver, kidney and lungs) of all three rats were collected on ice at necropsy 24 hours after administration before being homogenized and analyzed.
Each rat received an iv dose at 5 mg/kg and the internal organs were collected at narcopsy at 24 h. The organs were homogenized and further processed by protein precipitation (n=3) and centrifugation. Analysis of the samples was conducted by LC-MS.
Tissues (liver, kidneys and lungs) were collected on ice at necropsy at 24 h (after prior exsanguination), homogenized using a gentle MACS™ Dissociator and stored at −80° C. until analysis. The tissue samples for LC-MS were further processed by protein precipitation (n=3) by diluting 20 μL of the homogenate with 80 μL ACN containing IS (tolbutamide). After centrifugation, the supernatant was further diluted in the appropriate solvent.

[3] = after 24 h, one value per rat, Hydrochloride, 5 mg/kg

Cl.O=S(=O)(NCCN1CCNCC1)c1ccc(NC2CCCCC2)c(NCc2ccccc2)c1 [Compound 39, 3-(benzylamino)-4-(cyclohexylamino)-N-(2-(piperazin-1-yl)ethyl)benzenesulfonamide Hydrochloride]
Clinical disease scores during EAE pathology [1]: ameliorates clinical signs; also recorded: improved the clinical disease scores
concentration at 24 h ([2]; kidney, 5 mg/kg, after 24 h, one value per rat, read-out: Tissue distribution, Kidney): 200 ng/g
concentration at 24 h ([2]; liver, 5 mg/kg, after 24 h, one value per rat, read-out: Tissue distribution, Liver): 230 ng/g
concentration at 24 h ([2]; lung, 5 mg/kg, after 24 h, one value per rat, read-out: Tissue distribution, Lung): 480 ng/g
Concentrations in all analyzed tissues (liver, kidney, lungs) ([2]; 24 hours after administration): Significant concentrations
Tissue distribution, Kidney [2, 3]: 0.35 mg/kg organ and 0.38 mg/kg organ
Tissue distribution, Liver [2, 3]: 0.22 mg/kg organ and 0.15 mg/kg organ
Tissue distribution, Lung [2, 3]: 0.19^a mg/kg organ and 0.53 mg/kg organ
